Drawing on PubChem BioAssay (NCI), this text covers TGI for ten compounds.

Each structure is given as a SMILES string.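 These data come from cells grown in 96-well plates and exposed to compound for 48 hours at five concentrations. TGI: total growth inhibition.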 Some results are limits rather than exact numbers.

Among the test systems are SW-620 colon; COLO 205 colon; SF-539 CNS; MALME-3M melanoma; A498 renal; TK-10 renal; SK-MEL-5 melanoma; HCC-2998 colon; NCI-H23 lung; SNB-75 CNS; HL-60(TB) leukemia; U251 CNS; HCT-15 colon; HOP-62 NSCLC; DU-145 prostate; HS 578T breast.
Common to all, as to experiment: inhibition of tumour cell growth, NCI panel, 48 h

Consider `CC(C)(CN1CCCCC1)C(=O)/C=C/c1ccc(Br)cc1`, for which the TGI in the test with SW-620 colon turned out to be 6.83 µM; in the test with COLO 205 colon, 5.56 µM; in the test with SF-539 CNS it was 4.96 µM; in the test on MALME-3M melanoma, 17.4 µM; with A498 renal, 5.8 µM; in the test with TK-10 renal it was 10.2 µM. Also, the TGI is 12.6 µM in the test on SK-MEL-5 melanoma; 31.7 µM in the test on HCC-2998 colon; 9.11 µM in the test on NCI-H23 lung; 14.9 µM in the test on SNB-75 CNS; 5.83 µM with HL-60(TB) leukemia; 8.11 µM with U251 CNS. Also, the TGI was greater than 24.7 µM in the test with HCT-15 colon and 9.82 µM in the test on HOP-62 NSCLC.

For `CCOC(=O)c1cn(CC)c(=O)n2c1nc1ccccc12`, the TGI in the test with SW-620 colon, with COLO 205 colon, in the test on SF-539 CNS, in the test on A498 renal, with DU-145 prostate and with SK-MEL-5 melanoma was greater than 100 µM throughout. Besides, the TGI in the test with HCC-2998 colon, with NCI-H23 lung, with SNB-75 CNS, in the test on U251 CNS, in the test with HCT-15 colon and with HOP-62 NSCLC was greater than 100 µM each time.

Turning to `O=C(O)CCCc1ccc2c(c1)CC1(C2)Cc2cc3c(cc2C1)CCCC3`, the TGI in the test on HS 578T breast was greater than 100 µM; in the test with COLO 205 colon, 38.2 µM; with SF-539 CNS, 3.82 µM; in the test on MALME-3M melanoma it was 41.5 µM; in the test on A498 renal it was 35.3 µM; in the test with TK-10 renal, greater than 100 µM. In addition, the TGI in the test on SK-MEL-5 melanoma came to 32.7 µM; with HCC-2998 colon it was 41.4 µM; in the test on NCI-H23 lung it was 49.2 µM; with HL-60(TB) leukemia, 28.2 µM; in the test with U251 CNS it was 32.9 µM; with HCT-15 colon, 23.7 µM. This compound also registered a TGI in the test with HOP-62 NSCLC of 3.54 µM.

For `CN1CCOC(C(NC(=O)c2ccccc2)c2ccccc2)C1=O` (stereo not drawn), the TGI in the test on SW-620 colon, in the test on COLO 205 colon, in the test with SF-539 CNS, in the test with MALME-3M melanoma, with A498 renal and in the test with TK-10 renal was greater than 100 µM throughout. The TGI in the test on SK-MEL-5 melanoma, with HCC-2998 colon, in the test on NCI-H23 lung, with SNB-75 CNS, in the test with HL-60(TB) leukemia and in the test on U251 CNS was greater than 100 µM each time. In addition, the TGI with HCT-15 colon and in the test on HOP-62 NSCLC was greater than 100 µM each time.

As to `O=c1cc(Nc2cccc(O)c2)[nH]c(=O)[nH]1`, the TGI in the test with HS 578T breast, with SW-620 colon, in the test with COLO 205 colon, with SF-539 CNS, in the test with MALME-3M melanoma and with A498 renal was greater than 100 µM in each case. Besides, the TGI in the test with TK-10 renal, in the test with SK-MEL-5 melanoma, with HCC-2998 colon, in the test on NCI-H23 lung, in the test on SNB-75 CNS and with HL-60(TB) leukemia was greater than 100 µM each time. For the same compound, the TGI in the test on U251 CNS, with HCT-15 colon and in the test on HOP-62 NSCLC was greater than 100 µM throughout.

For `C1CCC(N=C2N(C3CCCCC3)C(=NC3CCCCC3)N2C2CCCCC2)CC1`, the TGI in the test on SW-620 colon, with COLO 205 colon, in the test with MALME-3M melanoma, with TK-10 renal, with SK-MEL-5 melanoma and in the test with HCC-2998 colon was greater than 100 µM in each case. The TGI in the test on NCI-H23 lung, with SNB-75 CNS, with HL-60(TB) leukemia, with U251 CNS, with HCT-15 colon and in the test on HOP-62 NSCLC was greater than 100 µM in each case.

Consider `CSc1nncc(-c2cc3c(c(SC)n2)CCCC3)n1`, for which the TGI with SW-620 colon, in the test on COLO 205 colon, with SF-539 CNS, with A498 renal, with TK-10 renal and with DU-145 prostate was greater than 100 µM each time. Moreover, the TGI with SK-MEL-5 melanoma, with HCC-2998 colon, with NCI-H23 lung, in the test with SNB-75 CNS, in the test with HL-60(TB) leukemia and in the test with U251 CNS was greater than 100 µM throughout. For the same compound, the TGI in the test on HCT-15 colon and with HOP-62 NSCLC was greater than 100 µM in each case.

Take `CCOC(=O)C1S(=O)(=O)OCCOS1(=O)=O`: the TGI in the test with SW-620 colon, in the test with COLO 205 colon, in the test on SF-539 CNS, with MALME-3M melanoma, in the test on TK-10 renal and in the test on SK-MEL-5 melanoma was greater than 100 µM each time. Besides, the TGI with HCC-2998 colon, in the test on NCI-H23 lung, with SNB-75 CNS, in the test with HL-60(TB) leukemia and in the test on HOP-62 NSCLC was greater than 100 µM in each case.

For `NC1=NC2(COC(c3ccccc3)(c3ccccc3)c3ccccc3)OC(COC(c3ccccc3)(c3ccccc3)c3ccccc3)C(O)C2O1` (stereo not drawn), the TGI in the test on SW-620 colon, with COLO 205 colon, with SF-539 CNS, in the test with MALME-3M melanoma, in the test on A498 renal and in the test with TK-10 renal was greater than 100 µM each time. Further, the TGI in the test with DU-145 prostate was greater than 100 µM; in the test with SK-MEL-5 melanoma, greater than 100 µM; in the test on NCI-H23 lung, greater than 100 µM; in the test on SNB-75 CNS, 4.47 µM; with HL-60(TB) leukemia it was greater than 100 µM; in the test on U251 CNS, greater than 100 µM. Also, the TGI in the test with HCT-15 colon and in the test on HOP-62 NSCLC was greater than 100 µM throughout.

With `NNc1nnc(CCCCCCCCc2nnc(NN)n2N)n1N`, the TGI with SW-620 colon, in the test with COLO 205 colon, with SF-539 CNS, in the test on A498 renal, in the test on TK-10 renal and in the test on DU-145 prostate was greater than 100 µM each time. The TGI in the test on SK-MEL-5 melanoma was greater than 100 µM; with HCC-2998 colon it was greater than 100 µM; in the test on NCI-H23 lung, greater than 100 µM; in the test with SNB-75 CNS, greater than 100 µM; in the test on HL-60(TB) leukemia, greater than 100 µM; in the test with U251 CNS, 49 µM. Further, the TGI with HCT-15 colon and with HOP-62 NSCLC was greater than 100 µM in each case.
